Assay results from paper PMC8402609, “Guiding the Immune Response to a Conserved Epitope in MSP2, an Intrinsically Disordered Malaria Vaccine Candidate” (Vaccines, 2021).
Where a SMILES comes first, the peptide text is derived from it. Bridges are numbered along the chain shown (N, C = ends). Roman numbers before positions name the chains, in order.

How the values were obtained:
3D7 merozoites = experiment: Merozoite ELISA with pooled mouse sera, 3D7 merozoites; format: in vivo, P. falciparum; details: pooled sera of immunised mice, two-fold dilutions from 1:500; merozoites 1 × 10^7/well; OD 450 nm; rank order in words
Procedure: (§1) The reactivity of mouse polyclonal antibodies with merozoites was determined by ELISA using merozoites from both the 3D7 and FC27 (D10 clone) strains of P. falciparum. The parasites were cultured in human erythrocytes at a haematocrit of 3% in RPMI media supplemented with […]. Viable merozoites were isolated as described previously. Highly synchronised late-stage schizonts were magnet-purified via a MACS magnet separation column (Miltenyi Biotec, Macquarie Park, Australia) and treated with E64 protease inhibitor (ThermoFisher Scientific, Scoresby, Australia) until mature merozoites were formed. Merozoites were released forcing them through a 1.2 µm filter.
(§2) Purified whole merozoites were resuspended in PBS supplemented with a cocktail of protease inhibitors (Roche, Castle Hill, Australia). Isolated merozoites were used to coat Nunc Maxisorp™ plates at 1 × 10^7/well and incubated overnight at 4 °C. The plates were then blocked with 1% casein in PBS at 37 °C for 2 h (or overnight at 4 °C). Pooled sera samples were added to wells at two-fold serial dilution in duplicate with a starting dilution of 1:500 and incubated at RT for 1 h. The plates were further incubated with HRP-conjugated goat anti-mouse IgG antibody diluted at 1:1000 in 0.1% casein in PBS at RT for 1 h. The plates were washed six times with PBS between each incubation step. Finally, 3,3′,5,5′-tetramethylbenzidine (TMB) substrate (Thermo Fisher Scientific, Scoresby, Australia) was added to the wells for the development of colour for 15 min and the reaction was stopped with 1 M sulfuric acid. The OD was measured at 450 nm.
The ability to induce an immune response that can recognise parasite MSP2 is essential in the design of an MSP2-based peptide vaccine. We isolated merozoites from both 3D7 and FC27 (D10 clone) strains of P. falciparum, coated them on ELISA plates and probed them with sera from the immunised mice (Figure 6). mAb 4D11 and the MSP2 mix pre-bleed were also included as positive and negative controls, respectively.

[1] = tested on: biotinylated 13-residue peptides (A-I) spanning the C-terminal region of MSP2; experiment: Fine specificity of antisera by peptide array ELISA (peptides A-I); format: in vivo, mouse; details: individual sera of mice immunised with peptide-KLH conjugate or MSP2 mix, diluted 1:1000; indirect ELISA; peptides C-D span 9H4 epitope, E-G span 4D11 epitope
Procedure: Peptide was conjugated to maleimide-activated KLH (Sigma-Aldrich) following the manufacturer’s protocol. Briefly, 1 mg of each peptide was mixed with 1 mg KLH in the provided buffer for a 200-fold molar excess of peptide to carrier protein. The reaction mixture was degassed under nitrogen and mixed at room temperature (RT) for 2 h. Any unreacted peptide was removed by dialysis against PBS using a 10 kDa cut-off membrane. The extent of conjugation was determined using Ellman’s reagent. Peptide-KLH conjugate stock solution was stored at 4 °C until further use. Prior to immunisation, peptide-KLH conjugates were diluted to 1 mg/mL in PBS and formulated with Montanide ISA720 at an antigen:adjuvant ratio of 3:7 and a final concentration of 0.3 mg/mL. The 3D7 + FC27 MSP2 mix was formulated using 0.15 mg/mL of each allelic form. Female C57BL/6 mice (n = 6 per group) were inoculated subcutaneously with 100 µL containing 30 µg of antigen at weeks 0, 4 and 8, then euthanised at week 10. Sera were collected and stored at −80 °C.
(§3) To determine peptide-KLH binding to 4D11 and 9H4, Maxisorp 96-well microtitre plates (Nunc, Rochester, NY, USA) were coated overnight at 4 °C with 2 µg/mL peptide-KLH in PBS. The plates were blocked with 1% BSA in PBS for 1 h before adding 100 µL of 4D11 and 9H4 IgG in eleven half log10 serial dilutions starting from stock at 1 µg/mL. After 1 h incubation at 4 °C and washing, antigen-bound antibodies were detected with goat anti-mouse IgG (1:2000 dilution) and freshly prepared 2,2-azinobis(3-ethylbenzthiazolinesulfonic acid (ABTS) substrate (1 mm) in citric acid buffer, pH 4.2, containing […]. The absorbance was read at 405 nm using a microplate reader. For determination of peptide-specific antibody titres, peptide-BSA conjugate was coated on the plate at 2 µg/mL. Individual mouse sera were added at a starting dilution of 1000-fold with six half log10 serial dilutions. Endpoint titres were taken as the x-axis intercept of the dilution curve at an absorbance value of three standard deviations (s.d.) greater than OD405 for naïve mouse serum. The fine specificities of the antisera were determined by ELISA using an array of nine biotinylated 13-residue peptides (A-I), which overlap by 2 or 3 residues and spanned the C-terminal region of MSP2 [11, 13]. Maxisorp 96-well microtitre plates (Nunc) were coated overnight at 4 °C with 1 µg/mL streptavidin in PBS. The plates were blocked with 1% BSA in PBS for 2 h before adding 1:500 biotinylated peptides. Individual sera samples were diluted 1:1000 in blocking solution before addition to the peptide array. Antibody was detected with the same protocol as mentioned above.
To characterise the response against these dimeric peptides further, the specificity of the induced antibodies was determined by indirect ELISA using an array of nine biotinylated peptides that spanned the epitopes recognised by the 4D11 and 9H4 mAbs (peptides A-I) (Table 3). Peptides C and D spanned the 9H4 epitope, whilst peptides E to G spanned the 4D11 epitope. […] However, the response against MSP2 was largely dominated by a single mouse in the group.

[2] = tested on: FC27 (D10 clone) merozoites; experiment: Merozoite ELISA with pooled mouse sera, FC27 merozoites; format: in vivo, P. falciparum; details: pooled sera of immunised mice, two-fold dilutions from 1:500; merozoites 1 × 10^7/well; OD 450 nm; rank order in words
Procedure: as §1
as §2, with “Finally, 3,3′,5,5′-tetramethylbenzidine (TMB) substrate (Thermo Fisher Scientific, Scoresby, Australia) was added to the wells for the development of colour for 15 min and the reaction was stopped with 1 M sulfuric acid.” left out, “nm. […]” for “nm.”

4D11 IgG = experiment: ELISA binding of 4D11 IgG against BSA-peptide conjugates; parameters: species or system mouse; details: peptide maleimide-conjugated to BSA coated on plate
Procedure: as §3, with “To determine peptide-KLH binding to 4D11 and 9H4, Maxisorp 96-well microtitre plates (Nunc, Rochester, NY, USA) were coated overnight at 4 °C with 2 µg/mL peptide-KLH in PBS.” left out, “Maxisorp 96-well microtitre plates (Nunc) were coated overnight at 4 °C with 1 µg/mL streptavidin in PBS. The plates were blocked with 1% BSA in PBS for 2 h before adding 1:500 biotinylated peptides. Individual sera samples were diluted 1:1000 in blocking solution before addition to the peptide array.” left out
Anti-peptide antibody titres in the sera of immunised mice were determined using ELISA plates coated with the corresponding peptide-bovine serum albumin (BSA) conjugates. […]

Compound | reactivity of pooled sera with 3D7 merozoites (3D7 merozoites) | specificity of the induced antibodies (peptide array A-I) [1] | reactivity of pooled sera with FC27 merozoites [2] | 4D11 IgG binding to BSA-peptide conjugate (4D11 IgG)
CC(=O)N[C@@H](CC(N)=O)C(=O)N[C@@H](CCCCN)C(=O)N[C@@H](CCC(=O)O)C(=O)N[C@@H](CC(N)=O)C(=O)N[C@@H](CSSC[C@H](NC(=O)[C@H](CC(N)=O)NC(=O)[C@H](CCC(=O)O)NC(=O)[C@H](CCCCN)NC(=O)[C@H](CC(N)=O)NC(C)=O)C(=O)NCC(=O)N[C@@H](C)C(=O)N[C@@H](C)C(=O)N[C@@H](CS)C(N)=O)C(=O)NCC(=O)N[C@@H](C)C(=O)N[C@@H](C)C(N)=O [Peptide D1] (I: Ac-NKENCGAAC-NH2 / II: Ac-NKENCGAA-NH2; disulfide I:5-II:5) | weak reactivity | almost exclusively directed to the 4D11 epitope | weak reactivity | 
SKWICANRSVCPI [non-relevant peptide maleimide-conjugated to BSA, linker control] |  |  |  | no 4D11 IgG binding
